Laboratory results published in US7435837B2, “Dihydrobenzofuranyl alkanamine derivatives and methods for using same” (Wyeth, priority 2003, dated 2008).

Target: T1, human 5-HT2C receptor (Homo sapiens, UniProt P28335)
T1 sequence (P28335 33-458): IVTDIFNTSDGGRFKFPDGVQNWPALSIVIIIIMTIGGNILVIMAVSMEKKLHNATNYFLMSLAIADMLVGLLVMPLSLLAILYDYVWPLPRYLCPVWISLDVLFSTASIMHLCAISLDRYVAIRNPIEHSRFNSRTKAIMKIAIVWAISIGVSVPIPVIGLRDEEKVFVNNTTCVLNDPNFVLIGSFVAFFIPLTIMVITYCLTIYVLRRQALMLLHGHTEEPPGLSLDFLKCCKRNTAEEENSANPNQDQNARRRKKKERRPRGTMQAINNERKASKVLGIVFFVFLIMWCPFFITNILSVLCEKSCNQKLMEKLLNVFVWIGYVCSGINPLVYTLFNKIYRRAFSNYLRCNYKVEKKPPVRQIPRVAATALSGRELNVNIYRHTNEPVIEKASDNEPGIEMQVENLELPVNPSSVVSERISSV
Test: 5-HT2C receptor-stimulated calcium mobilization (FLIPR) in CHO cells;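 also: Fluo-3-AM fluorescence read on FLIPR every 1 s, agonist added after 10 baseline reads, response taken as peak minus lowest raw fluorescence count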
Type: cell-based
Conditions: for Emax: CHO, read-out: 5-HT2C Function Emax (%); for Emax / 5-HT2C Function Emax (%): percentage of the response observed with a maximally effective concentration of 5-HT; for EC50: calcium mobilization, CHO cells stably expressing human 5-HT2C, read-out: 5-HT2C Function EC50

Row | Compound | Emax | EC50 | 5-HT2C Function Emax (%)
1 | CNCC1Cc2cc(Cl)cc(-c3ccc(OC)cc3OC)c2O1 (racemic) [Example 469, (±)-{[5-chloro-7-(2,4-dimethoxyphenyl)-2,3-dihydro-1-benzofuran-2-yl]methyl}methylamine] | 80% | 21 nM | 
2 | CNCC1Cc2cccc(-c3cc(Cl)ccc3OC)c2O1 (racemic) [Example 430, (±)-[(N-methyl-1-[7-(5-chloro-2-methoxyphenyl)-2,3-dihydro-1-benzofuran-2-yl]methanamine] | 80% | 448 nM | 
3 | Cc1cccc(C)c1-c1cc(Cl)cc2c1OC(CN)C2 (single isomer, unassigned; (+)) [Example 262, (+)-{[5-chloro-7-(2,6-dimethylphenyl)-2,3-dihydro-1-benzofuran-2-yl]methyl}amine] |  | 471 nM | 70%
4 | CNCC1Cc2cc(F)cc(-c3cccc(OC)c3OC)c2O1 (single isomer, unassigned; (+)) [Example 569, (+)-{[7-(2,3-dimethoxyphenyl)-5-fluoro-2,3-dihydro-1-benzofuran-2-yl]methyl}methylamine] |  | 6 nM | 60%
5 | CNCC1Cc2cccc(-c3c(Cl)cccc3Cl)c2O1 (single isomer, unassigned; (+)) [Example 435, (+)-{[7-(2,6-dichlorophenyl)-2,3-dihydro-1-benzofuran-2-yl]methyl}methylamine] |  | 82 nM | 80%
6 | CCCNCC1Cc2cc(F)cc(-c3c(Cl)cccc3Cl)c2O1 (racemic) [Example 235, (±)-N-{[7-(2,6-dichlorophenyl)-5-fluoro-2,3-dihydro-1-benzofuran-2-yl]methyl}propan-1-amine] | 50% | 49 nM | 
7 | CNCC1Cc2cc(F)cc(-c3ccc(Cl)cc3Cl)c2O1 (single isomer, unassigned; (+)) [Example 447] |  | 3 nM | 90%
8 | CNCC1Cc2cc(F)cc(-c3c(C)cccc3C)c2O1 (single isomer, unassigned; (+)) [Example 558, (+)-{[7-(2,6-dimethylphenyl)-5-fluoro-2,3-dihydro-1-benzofuran-2-yl]methyl}methylamine] | 70% | 265 nM | 
9 | NCC1Cc2cccc(-c3cccc(F)c3F)c2O1 (racemic) [Example 160, (±)-{[7-(2,3-difluorophenyl)-2,3-dihydro-1-benzofuran-2-yl]methyl}amine] | 100% | 32 nM | 
10 | CNCC1Cc2cc(F)cc(-c3cccc(OC)c3OC)c2O1 (racemic) [Example 444, (±)-{[7-(2,3-dimethoxyphenyl)-5-fluoro-2,3-dihydro-1-benzofuran-2-yl]methyl}methylamine] | 80% | 37 nM | 
11 | Fc1cc2c(c(-c3c(Cl)cccc3Cl)c1)OC(CNC1CCC1)C2 (racemic) [Example 233, (±)-N-{[7-(2,6-dichlorophenyl)-5-fluoro-2,3-dihydro-1-benzofuran-2-yl]methyl}cyclobutanamine] | 20% | 614 nM | 
12 | CNCC1Cc2cc(F)cc(-c3c(Cl)cccc3Cl)c2O1 (single isomer, unassigned; (-)) [Example 544, (−){[7-(2,6-dichlorophenyl)-5-fluoro-2,3-dihydro-1-benzofuran-2-yl]methyl}methylamine] |  | 73 nM | 70%
13 | CNCC1Cc2cccc(-c3cc(C)ccc3C)c2O1 (racemic) [Example 427, (±)-[(N-methyl-1-[7-(2,5-dimethylphenyl)-2,3-dihydro-1-benzofuran-2-yl]methanamine] | 80% | 298 nM | 
14 | Cc1cccc(C)c1-c1cc(Cl)cc2c1OC(CN1CCCC1)C2 (racemic) [Example 280, (±)-1-{[5-chloro-7-(2,6-dimethylphenyl)-2,3-dihydro-1-benzofuran-2-yl]methyl}pyrrolidine] | 70% | 288 nM | 
15 | CNCC1Cc2cc(Cl)cc(-c3c(C)cccc3C)c2O1 (single isomer, unassigned; (-)) [Example 564, (−)-{[5-chloro-7-(2,6-dimethylphenyl)-2,3-dihydro-1-benzofuran-2-yl]methyl}methylamine] | 90% | 43 nM | 
16 | Fc1cc2c(c(-c3c(Cl)cccc3Cl)c1)OC(CN1CCCC1)C2 (racemic) [Example 240, (±)-1-{[7-(2,6-dichlorophenyl)-5-fluoro-2,3-dihydro-1-benzofuran-2-yl]methyl}pyrrolidine] | 70% | 89 nM | 
17 | CNCC1Cc2cc(Cl)cc(-c3c(C)cccc3C)c2O1 (racemic) [Example 461, (±)-{[5-chloro-7-(2,6-dimethylphenyl)-2,3-dihydro-1-benzofuran-2-yl]methyl}methylamine] | 80% | 34 nM | 

Row | Compound | Emax | EC50 | 5-HT2C Function Emax (%)
18 | Cc1cccc(C)c1-c1cc(F)cc2c1OC(CN)C2 (single isomer, unassigned; (+)) [Example 228, (+)-{[7-(2,6-dimethylphenyl)-5-fluoro-2,3-dihydro-1-benzofuran-2-yl]methyl}amine] |  | 313 nM | 70%
19 | NC[C@H]1Cc2cc(F)cc(-c3c(Cl)cccc3Cl)c2O1 [Example 550, (−)-{[7-(2,6-dichlorophenyl)-5-fluoro-2,3-dihydro-1-benzofuran-2-yl]methyl}amine] | 100% |  | 
20 | CNCC1Cc2cccc(-c3cc(Cl)ccc3C)c2O1 (racemic) [Example 431, (±)-[(N-methyl-1-[7-(5-chloro-2-methylphenyl)-2,3-dihydro-1-benzofuran-2-yl]methanamine] | 90% | 63 nM | 
21 | COc1cccc(-c2cc(F)cc3c2OC(CN)C3)c1OC (single isomer, unassigned; (-)) [Example 213, (−)-{[7-(2,3-dimethoxyphenyl)-5-fluoro-2,3-dihydro-1-benzofuran-2-yl]methyl}amine] |  | 9 nM | 100%
22 | CNCC1Cc2cccc(-c3ccc(Cl)cc3Cl)c2O1 (racemic) [Example 425, (±)-[(N-methyl-1-[7-(2,4-dichlorophenyl)-2,3-dihydro-1-benzofuran-2-yl]methanamine] | 100% | 9 nM | 
23 | Cc1cccc(C)c1-c1cc(Cl)cc2c1OC(CN1CCNCC1)C2 (racemic) [Example 279, (±)-1-{[5-chloro-7-(2,6-dimethylphenyl)-2,3-dihydro-1-benzofuran-2-yl]methyl}piperazine] | 70% | 155 nM | 
24 | CNCC1Cc2cccc(-c3cccc(F)c3F)c2O1 (racemic) [Example 437, (±)-[(N-methyl-1-[7-(2,3-difluorophenyl)-2,3-dihydro-1-benzofuran-2-yl]methanamine] | 80% | 30 nM | 
25 | CNCC1Cc2cccc(-c3ccc(OC)cc3OC)c2O1 (racemic) [Example 426, (±)-[(N-methyl-1-[7-(2,4-dimethoxyphenyl)-2,3-dihydro-1-benzofuran-2-yl]methanamine] | 100% | 17 nM | 
26 | CNCC1Cc2cc(Cl)cc(-c3c(C)cccc3C)c2O1 (single isomer, unassigned; (+)) [Example 565, (+)-{[5-chloro-7-(2,6-dimethylphenyl)-2,3-dihydro-1-benzofuran-2-yl]methyl}methylamine] |  | 287 nM | 70%
27 | CNCC1Cc2cc(Cl)cc(-c3ccccc3F)c2O1 (racemic) [Example 462, (±)-[(5-chloro-7-(2-fluorophenyl)-2,3-dihydro-1-benzofuran-2-yl]methyl}methylamine] | 80% | 79 nM | 
28 | CNCC1Cc2cc(Cl)cc(-c3ccc(Cl)cc3Cl)c2O1 (racemic) [Example 468, (±)-{[5-chloro-7-(2,4-dichlorophenyl)-2,3-dihydro-1-benzofuran-2-yl]methyl}methylamine] | 80% | 73 nM | 
29 | CNCC1Cc2cc(Cl)cc(-c3cc(F)ccc3F)c2O1 (racemic) [Example 470, (±)-{[5-chloro-7-(2,5-difluorophenyl)-2,3-dihydro-1-benzofuran-2-yl]methyl}methylamine] | 70% | 289 nM | 
30 | CNCC1Cc2cc(Cl)cc(-c3ccccc3OC)c2O1 (racemic) [Example 460, (±)-[(5-chloro-7-(2-methoxyphenyl)-2,3-dihydro-1-benzofuran-2-yl]methyl}methylamine] | 90% | 215 nM | 
31 | CNCC1Cc2cc(F)cc(-c3cccc(OC)c3OC)c2O1 (single isomer, unassigned; (-)) [Example 568, (−)-{[7-(2,3-dimethoxyphenyl)-5-fluoro-2,3-dihydro-1-benzofuran-2-yl]methyl}methylamine] | 80% | 4 nM | 
32 | CNCC1Cc2cccc(-c3c(C)cccc3C)c2O1 (racemic) [Example 432, (±)-[(N-methyl-1-[7-(2,6-dimethylphenyl)-2,3-dihydro-1-benzofuran-2-yl]methanamine] | 80% | 72 nM | 
33 | Cc1cccc(C)c1-c1cc(Cl)cc2c1OC(CN(C)C)C2 (racemic) [Example 274, (±)-{[5-chloro-7-(2,6-dimethylphenyl)-2,3-dihydro-1-benzofuran-2-yl]methyl}dimethylamine] | 70% | 330 nM | 
34 | Cc1cccc(C)c1-c1cc(Cl)cc2c1OC(CNCC1CC1)C2 (racemic) [Example 268, (±)-N-{[5-chloro-7-(2,6-dimethylphenyl)-2,3-dihydro-1-benzofuran-2-yl]methyl}(cyclopropylmethyl)amine] | 50% | 961 nM | 
